Results on 25 molecules are retold here after publication PMC5722316, “Synthesis of novel purpurealidin analogs and evaluation of their effect on the cancer-relevant potassium channel KV10.1” (PLoS ONE, 2017).

Molecules are shown by their SMILES.

One data set addresses T1, hKV10.1a (Homo sapiens, UniProt O95259).
T1 construct: expressed in transfected cells; host or cells: Xenopus laevis oocytes injected with cRNA transcribed from the hKV10.1a-pSGEM plasmid
T1 sequence (O95259 1-962 isoform O95259-2): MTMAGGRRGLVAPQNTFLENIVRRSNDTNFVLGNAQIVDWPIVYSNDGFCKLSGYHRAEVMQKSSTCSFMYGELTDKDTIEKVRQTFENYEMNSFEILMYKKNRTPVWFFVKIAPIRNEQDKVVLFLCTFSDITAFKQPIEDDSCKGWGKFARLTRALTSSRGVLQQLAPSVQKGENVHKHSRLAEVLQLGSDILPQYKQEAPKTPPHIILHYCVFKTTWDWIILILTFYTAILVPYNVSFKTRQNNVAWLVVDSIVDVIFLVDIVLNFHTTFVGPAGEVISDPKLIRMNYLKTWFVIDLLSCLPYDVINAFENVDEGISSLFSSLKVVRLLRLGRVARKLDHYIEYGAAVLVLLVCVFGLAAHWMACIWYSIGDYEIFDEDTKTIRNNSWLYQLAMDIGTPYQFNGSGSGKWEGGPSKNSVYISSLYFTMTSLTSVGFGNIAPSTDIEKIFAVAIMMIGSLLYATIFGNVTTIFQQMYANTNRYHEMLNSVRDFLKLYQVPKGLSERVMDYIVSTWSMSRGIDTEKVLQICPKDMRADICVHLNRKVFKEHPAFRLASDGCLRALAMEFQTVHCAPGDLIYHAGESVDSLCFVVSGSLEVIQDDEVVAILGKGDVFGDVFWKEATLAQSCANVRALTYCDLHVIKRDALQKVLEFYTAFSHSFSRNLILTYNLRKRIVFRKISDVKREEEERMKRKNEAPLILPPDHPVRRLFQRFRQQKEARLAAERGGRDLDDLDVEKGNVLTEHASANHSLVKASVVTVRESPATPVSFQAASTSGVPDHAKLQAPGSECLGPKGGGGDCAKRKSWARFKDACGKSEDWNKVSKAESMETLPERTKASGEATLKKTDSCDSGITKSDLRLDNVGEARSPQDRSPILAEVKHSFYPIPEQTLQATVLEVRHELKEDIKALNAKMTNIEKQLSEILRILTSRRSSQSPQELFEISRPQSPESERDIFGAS
Description: Two-electrode voltage-clamp recordings of KV10.1 currents in Xenopus laevis oocytes. Type of data set: cell-based. Conditions: for KV10.1 inhibitory activity in words (structure-activity discussion): based on inhibition at 40 μM (Fig 5). An excerpt:
For the expression of hKV10.1a (GeneBank accession number: NM_002238.3) in Xenopus oocytes, the hKV10.1a-pSGEM plasmid was linearized with SfiI (ThermoFisher Scientific, Waltham, Massachusetts, USA) and transcribed using the T7 mMESSAGE-mMACHINE transcription kit (Ambion®, Carlsbad, California, USA).
Stage V-VI Xenopus laevis (African clawed frog) oocytes were isolated by partial ovariectomy. Mature female animals were purchased from Nasco (Fort Atkinson, Wisconsin, USA) and were housed in the Aquatic Facility (KU Leuven) in compliance with the regulations of the European Union (EU) concerning the welfare of laboratory animals as declared in Directive 2010/63/EU. The use of Xenopus laevis was approved by the Animal Ethics Committee of the KU Leuven (Project nr. P038/2017). Prior to harvesting the oocytes, the animals were anesthetized by a 15-min submersion in 0.1% tricaine methanesulfonate (pH 7.0). Isolated oocytes were defolliculated with 1.5 mg/mL collagenase.
Defolliculated oocytes were injected with 4 nL of cRNA at a concentration of 1 ng/nL using a micro-injector (Drummond Scientific®, Broomall, Pennsylvania, USA). The oocytes were incubated in a solution containing (in mM): NaCl, 96; KCl, 2; CaCl2, 1.8; MgCl2, 2 and HEPES, 5 (pH 7.4), supplemented with 50 mg/L gentamycin sulfate.
Two-electrode voltage-clamp recordings were performed at room temperature (18–22°C) using a Geneclamp 500 amplifier (Molecular Devices, USA) controlled by a pClamp data acquisition system (Axon Instruments®, Union City, California, USA). Whole cell currents from oocytes were recorded 1–4 days after injection. Bath solution composition was (in mM): NaCl, 96; KCl, 2; CaCl2, 1.8; MgCl2, 2 and HEPES, 5 (pH 7.5). Voltage and current electrodes were filled with a 3 M solution of KCl in H2O. Resistances of both electrodes were kept between 0.5 and 1.5 MΩ. The elicited KV10.1 currents were filtered at 1 kHz and sampled at 2 kHz using a four-pole low-pass Bessel filter. Leak subtraction was performed using a -P/4 protocol. KV10.1 currents were evoked by 2-s depolarizing pulses to 0 mV from a holding potential of -90 mV unless otherwise indicated.
All electrophysiological data are presented as means ± S.E.M of n ≥ 3 independent experiments unless otherwise indicated. All data was analyzed using pClamp Clampfit 10.4 (Molecular Devices®, Downingtown, Pennsylvania, USA) and OriginPro 8 (Originlab®, Northampton, Massachusetts, USA) or GraphPad Prism 5 software (GraphPad Software, Inc., San Diego, California, USA).
(In general: In two-electrode clamp one electrode senses voltage and the other passes current.)

Setting [1] is: 40 μM, extracellular perfusion, average ± SEM, read-out: KV10.1 current inhibition.

One may read the melting point as the temperature, or range, at which the solid turns liquid. `COc1c(Br)cc(C(=O)NCCc2cc(Br)c(CCCN(C)C)c(Br)c2)cc1Br` [Compound 26] had a melting point of 83 to 85 °C.

A word on the inhibition: it is the percentage by which the read-out fell short of the control. `CNCCCOc1c(Br)cc(CCNC(=O)c2ccc(OC)cc2)cc1Br` [Compound 43] gave a melting point of 89 to 97 °C. The inhibition at 40 µM on hKV10.1a (setting [1]) was 9 ± 5%.

In turn, `CCOc1c(Cl)cc(C(=O)NCCc2cc(Br)c(CCCN(C)C)c(Br)c2)cc1Cl` [Compound 24] registered a melting point of 73 to 75 °C. In the case of `COc1ccc(C(=O)NCCc2cc(Br)c(CCCN(C)C)c(Br)c2)cc1` [Compound 21], the melting point is 106 to 109 °C. The molecule `COc1c(F)cc(C(=O)NCCc2cc(Br)c(CCCN(C)C)c(Br)c2)cc1F` [Compound 28] registered a melting point of 93 to 96 °C. Still for that read-out and setting: the result for `COc1c(Cl)cc(C(=O)NCCc2cc(Br)c(CCCN(C)C)c(Br)c2)cc1Cl` [Compound 23] reads 91 to 95 °C. `CN(C)CCCOc1c(Br)cc(CCNC(=O)c2ccccc2Br)cc1Br` [Compound 12]: the inhibition at 40 µM on hKV10.1a (setting [1]) was 27 ± 4%. As to `COc1ccc(C(=O)NCCc2cc(Br)c(OCCCN(C)C)c(Br)c2)cc1I` [Compound 29], at hKV10.1a (setting [1]), the inhibition at 40 µM was found to be 79 ± 2%. Turning to `CNCCCOc1c(Br)cc(CCNC(=O)c2cc(F)c(OC)c(F)c2)cc1Br` [Compound 46], the melting point lay within 87 to 92 °C. For the same molecule, on hKV10.1a (setting [1]), the inhibition at 40 µM stood at 14 ± 5%. On to `COc1ccc(C(=O)NCCc2cc(Br)c(OCCCN(C)C)c(Br)c2)cc1Br` [Compound 25], for which, at hKV10.1a (setting [1]), the inhibition at 40 µM was found to be 80 ± 4%. As to `CN(C)CCCc1c(Br)cc(CCNC(=O)c2cc(Cl)cc(Cl)c2)cc1Br` [Compound 16], the melting point fell in the range of 83 to 84.5 °C. As to `CN(C)CCCOc1c(Br)cc(CCNC(=O)c2cc(F)cc(F)c2)cc1Br` [Compound 18], at hKV10.1a (setting [1]), the inhibition at 40 µM amounted to 35 ± 2%.

As to `CN(C)CCCOc1c(Br)cc(CCNC(=O)c2cncc(Br)c2)cc1Br` [Compound 15], on hKV10.1a (setting [1]), the inhibition at 40 µM worked out at 50 ± 3%.

Molecule `CC(C)CCCOc1c(Br)cc(CCNC(=O)c2cc(Br)cc(Br)c2)cc1Br` [Compound 32] came in with a melting point of 123 to 124 °C. Moreover, the inhibition at 40 µM at hKV10.1a (setting [1]) turned out to be 0%. Also, the “KV10.1 inhibitory activity in words (structure-activity discussion)” value (shortened to “KV10.1 inhibitory activity in words”) at hKV10.1a is listed as “total loss of the activity”.

Take `COc1ccc(C(=O)NCCc2cc(Br)c(OCCCN(C)C)c(Br)c2)cc1F` [Compound 27]: the melting point was in the range of 83 to 89 °C. Further, the inhibition at 40 µM at hKV10.1a (setting [1]) is 65 ± 1%. With `CN(C)CCCOc1ccc(CCNC(=O)c2cc(Cl)cc(Cl)c2)cc1` [Compound 35], the inhibition at 40 µM at hKV10.1a (setting [1]) was found to be 4 ± 4%. The “KV10.1 inhibitory activity in words” value on hKV10.1a is reported as “abolished the activity”.

For the molecule `COc1ccc(C(=O)NCCc2cc(Br)c(OCCCN(C)C)c(Br)c2)cc1C` [Compound 30], on hKV10.1a (setting [1]), the inhibition at 40 µM was 80 ± 2%.

With `CC(C)CCCOc1c(Br)cc(CCNC(=O)c2cc(Cl)cc(Cl)c2)cc1Br` [Compound 33], the melting point fell in the range of 107.5 to 109 °C. For the same molecule, the inhibition at 40 µM at hKV10.1a (setting [1]) came out at 0%. Moreover, the “KV10.1 inhibitory activity in words” value on hKV10.1a is reported as “total loss of the activity”. Turning to `COc1ccc(C(=O)NCCc2cc(Br)c(OCCCN(C)C)c(Br)c2)cc1OC` [Compound 31], on hKV10.1a (setting [1]), the inhibition at 40 µM is 44 ± 4%. Molecule `CNCCCOc1c(Br)cc(CCNC(=O)c2cc(Cl)c(OC)c(Cl)c2)cc1Br` [Compound 45] registered a melting point of 86 to 97 °C. In addition, at hKV10.1a (setting [1]), the inhibition at 40 µM turned out to be 39 ± 7%. On to `CN(C)CCCOc1c(Br)cc(CCNC(=O)c2ccc(Br)cc2)cc1Br` [Compound 14], for which, at hKV10.1a (setting [1]), the inhibition at 40 µM was 22 ± 3%.

Regarding `COCC(=O)O[C@]1(CCN(C)CCCc2nc3ccccc3[nH]2)CCc2cc(F)ccc2[C@@H]1C(C)C` [mibefradil, reference compound], on hKV10.1a (10 μM, 2-s depolarizing pulses to 0 mV from -90 mV, read-out: KV10.1 current inhibition), the inhibition at 10 µM was 50 ± 5%. On to `O=C(NCCc1ccc(O)cc1)c1cc(Cl)cc(Cl)c1` [Compound 34], for which the KV10.1 current inhibition on hKV10.1a (40 μM, extracellular perfusion, average ± SEM) amounted to 0 ± 0%. `CN(C)CCCOc1c(Br)cc(CCNC(=O)c2ccccc2F)cc1Br` [Compound 19] returned a melting point of 70 to 72 °C. The inhibition at 40 µM on hKV10.1a (setting [1]) came out at 32 ± 4%.

Regarding `CNCCCOc1c(Br)cc(CCNC(=O)c2ccc(OC)c(Cl)c2)cc1Br` [Compound 44], at hKV10.1a (setting [1]), the inhibition at 40 µM was 58 ± 1%.
